# Key:
# Staphylococcus aureus = assay: in vitro antibacterial activity, minimum inhibitory concentration (M.I.C.), agar plates; assay type: cell-based; settings: 24 hours at 37° C., read-out: MIC Staph. aureus
# Protocol: (§1) The in vitro evaluation of the compounds of the invention as antibacterial agents has been performed by determining the minimum inhibitory concentration (M.I.C.) of the test compound in a suitable medium at which growth of the particular micro-organism fails to occur. In practice, agar plates, each having incorporated therein the test compound at a particular concentration are inoculated with a standard number of cells of the test micro-organism and each plate is then incubated for 24 hours at 37° C. The plates are then observed for the presence or absence of the growth of bacteria and the appropriate M.I.C. value noted. Micro-organisms used in such tests having included strains of Escherichia coli, Klebsiella pneumoniae, Proteus mirabilis, Pseudomonas aeruginosa, Staphylococcus aureus and Streptococcus faecalis. Results of the testing of several of the compounds of this invention for their in vitro antibacterial activity, by the method described hereinbefore, are presented in Table I.
# Pseudomonas aeruginosa = assay: as above; assay type: cell-based; settings: 24 hours at 37° C., read-out: MIC Pseud. aeruginosa
# Protocol: as §1
# Proteus mirabilis = assay: as above; assay type: cell-based; settings: 24 hours at 37° C.
# Protocol: as §1
# Klebsiella pneumoniae = assay: as above; assay type: cell-based; settings: 24 hours at 37° C., read-out: MIC Kleb. pneumoniae
# Protocol: as §1
# Escherichia coli = assay: as above; assay type: cell-based; settings: 24 hours at 37° C., read-out: MIC Esch. coli
# Protocol: as §1
# E. coli = assay: in vivo antibacterial activity against E. coli in mice, 50% protection against lethal effect; settings: Escherichia coli, sc, subcutaneous, 50% protection over 72 hours, read-out: PD50
# Protocol: Each compound is administered at a series of dosage levels to groups of mice and its activity is determined as the level at which it gives 50% protection, against the lethal effect of the Escherichia coli organism over a period of 72 hours.
# The in vivo antibacterial activity of 1-N-[(S)-4-amino-2-hydroxybutyl]kanamycin A against E. coli in mice has been measured.
Structure (SMILES),MIC (Staphylococcus aureus) [µg/mL],MIC (Pseudomonas aeruginosa) [µg/mL],MIC (Proteus mirabilis) [µg/mL],MIC (Klebsiella pneumoniae) [µg/mL],MIC (Escherichia coli) [µg/mL],ED50 (E. coli) [mg/kg]
NCC[C@H](O)CN[C@@H]1C[C@H](N)[C@@H](O[C@H]2O[C@H](CN)[C@@H](O)[C@H](O)[C@H]2N)[C@H](O)[C@H]1O[C@H]1O[C@H](CO)[C@@H](O)[C@H](N)[C@H]1O [1-N-[(S)-4-Amino-2-hydroxybutyl]kanamycin B],1.6,0.8,6.2,1.6,3.1,–
"NCC(O)CN[C@@H]1C[C@H](N)[C@@H](O[C@H]2O[C@H](CN)[C@@H](O)[C@H](O)[C@H]2O)[C@H](O)[C@H]1O[C@H]1O[C@H](CO)[C@@H](O)[C@H](N)[C@H]1O (stereo partly drawn) [1-N-[3-amino-2-hydroxypropyl]kanamycin, 1-N-[3-Amino-2-hydroxpropyl]kanamycin A]",3.1,3.1,12.5,6.2,12.5,–
NCC[C@H](O)CN[C@@H]1C[C@H](N)[C@@H](O[C@H]2O[C@H](CN)[C@@H](O)[C@H](O)[C@H]2N)[C@H](O[C@@H]2O[C@H](CO)[C@@H](O)[C@H]2O)[C@H]1O [1-N-[(S)-4-Amino-2-hydroxybutyl]ribostamycin],12.5,12.5,25,6.2,6.2,–
NCCC[C@H](O)CN[C@@H]1C[C@H](N)[C@@H](O[C@H]2O[C@H](CN)[C@@H](O)[C@H](O)[C@H]2O)[C@H](O)[C@H]1O[C@H]1O[C@H](CO)[C@@H](O)[C@H](N)[C@H]1O [1-N-[(S)-5-Amino-2-hydroxypentyl]kanamycin A],1.6,3.1,12.5,3.1,6.2,–
NCCCC[C@H](O)CN[C@@H]1C[C@H](N)[C@@H](O[C@H]2O[C@H](CN)[C@@H](O)[C@H](O)[C@H]2O)[C@H](O)[C@H]1O[C@H]1O[C@H](CO)[C@@H](O)[C@H](N)[C@H]1O [1-N-[(S)-6-Amino-2-hydroxyhexyl]-kanamycin A],1.6,3.1,3.1,6.2,6.2,–
NCC[C@H](O)CN[C@@H]1C[C@H](N)[C@@H](O[C@H]2O[C@H](CN)[C@@H](O)[C@H](O)[C@H]2O)[C@H](O)[C@H]1O[C@H]1O[C@H](CO)[C@@H](O)[C@H](N)[C@H]1O [1-N-[(S)-4-Amino-2-hydroxybutyl]kanamycin A],1.6,1.6,3.1,3.1,6.2,3.8
CNC[C@H]1O[C@H](O[C@H]2[C@H](O)[C@@H](O[C@H]3O[C@H](CO)[C@@H](O)[C@H](N)[C@H]3O)[C@H](NC[C@@H](O)CCN)C[C@@H]2N)[C@H](O)[C@@H](O)[C@@H]1O [6'-N-Methyl-1-N-[(S)-4-amino-2-hydroxybutyl]kanamycin A],3.1,3.1,6.2,3.1,6.2,–

# Reference: US4217446A, “ωAmino-2-hydroxyalkyl derivatives of aminoglycoside antibiotics” (Pfizer Inc., priority 1974, dated 1980)
